Measured values taken from patent US20250059196A1 (SHANGHAI HANSOH BIOMEDICAL CO., LTD., priority 2021, published 2025).
Read-outs that look alike come from different tables or passages of the source.

How the values were obtained:
[1] = target: Recombinant human MALT1/MLT protein (Homo sapiens (Human), UniProt Q9UDY8); experiment: Inhibitory effect on MALT1 enzyme activity (Ac-LRSR-AMC substrate, fluorescence 460 nm); assay type: biochemical; conditions: 10 nM FL MALT1, Ac-LRSR-AMC substrate, 50 min pre-incubation, 4 h reaction
Experimental: Ac-LRSR-AMC was used as the substrate to test the IC50 of the inhibitory activity of compounds on MALT1 enzyme activity at their Km concentration.
Ac-LRSR-AMC was used as the substrate which was digested by MALT1 to produce products, which produced fluorescence that could be detected at 460 nm. The highest concentration of the compound detected was 1000 nM, 3-fold dilution, a total of 11 concentrations (1000 nM-0.017 nM). The reaction system is 10 nM FL MALT1 protein, […] Ac-LRSR-AMC, 50 mM Tris pH 7.5, 0.6M Citrate, 1 mM DTT, 1 mM EDTA, 0.05% BSA and 1.5% DMSO. The compound and the enzyme were pre-incubated at room temperature for 50 min. The substrate was then added and the reaction was carried out for 4 h.
The original data (460 nm reading) was calculated according to the following formula to obtain the inhibition rate.
(§1) Log(inhibitor) vs. response—Variable slope (four parameters) in GraphPad Prism 6 was used to perform fitting equation analysis on compound concentration and corresponding inhibition rate, the curve was fit and compound IC50 value was obtained.
(§2) The fitting calculation equation is Y=Bottom+(Top−Bottom)/(1+10^((Log IC50−X)*HillSlope))

[2] = Pharmacokinetics of oral administration in Balb/C mice; assay type: in vivo; parameters: Cmax: unit: ng/mL; conditions: 30 mg/kg, P.O., plasma
Experimental: Balb/C mice were used as test animals to study the pharmacokinetic behavior of the compound in the plasma of mice after oral administration at a dose of 30 mg/kg.
3 Balb/C mice (3/example), male, from Shanghai Jiesijie Experimental Animal Co., Ltd., animal production license number (SCXK (Shanghai) 2013-0006 N0.311620400001794).
3 Balb/C mice, male; p.o. respectively at a dose of 30 mg/kg and an administration volume of 10 mL/kg after the mice were fasted overnight.
Before and after administration of mice, 0.1 mL of blood was collected from the orbit at 0, 0.5, 1, 2, 4, 6, 8 and 24 h, and placed in EDTA-K2 test tubes, which was centrifuged at 6000 rpm at 4° C. for 6 min to separate plasma which was stored at −80° C.
• 1) 160 μL of acetonitrile was added to 40 μL of plasma sample for precipitation, and same was mixed and centrifuged at 3500×g for 5 to 20 min. • 2) 100 μL of the treated supernatant solution was taken and subjected to LC/MS/MS to analyze the concentrations of the test compounds.
• Liquid phase conditions: Shimadzu LC-20AD pump • Mass spectrometry conditions: AB Sciex API 4000 mass spectrometer • Chromatographic column: Phenomenex Gemiu 5 um C18 50×4.6 mm • Mobile phase: liquid A is 0.1% aqueous formic acid solution, liquid B is acetonitrile • flow rate: 0.8 mL/min • Elution time: 0-4.0 min, the eluent is as follows:
The main pharmacokinetic parameters were calculated using WinNonlin 8.2.

[3] = target: MALT1 protease activity in TMD8 cells (substrate BCL-10) (Homo sapiens (Human), UniProt Q9UDY8); experiment: Intracellular MALT1 protease activity detection (BCL-10 ELISA in TMD8 cells); assay type: cell-based; conditions: undigested BCL-10 by ELISA, 30 min compound then 2 h stimulation cocktail, read-out: Bcl10 TMD8 IC50
Experimental: By detecting the digestion level of the substrate BCL-10 by MALT1 in TMD8 cells, the inhibitory effect of the compound on MALT1 protease activity in the cellular environment was tested.
The ELISA sandwich method was used to detect the content of undigested BCL-10 protein in cells and determine the inhibitory effect of compounds on intracellular MALT1 protease activity. The highest concentration of the compound detected was 10000 nM, 3-fold dilution, a total of 9 concentrations (10000 nM-1.5 nM). Cells were plated at an appropriate density. Compounds of corresponding concentrations were first added for action for 30 min, and then eBioscience cell stimulation cocktail was added to stimulate the cells for 2 h. Cell lysate was then collected. The cell lysate was added to the assay plate previously coated with recombinant BCL-10 antibody (Abcam, #Ab33905) and incubated at 4° C. overnight. The next day, BCL-10 detection antibody (Santacruz, #Sc-5273HRP) was added and incubated for 2 h, TMB substrate was used for color development for about 30 min, then the color development was terminated, and a microplate reader was used for detection.
2) Curve fitting: Log(inhibitor) vs. response—Variable slope (four parameters) in GraphPad Prism 6 was used to perform fitting equation analysis on compound concentration and corresponding inhibition rate, the curve was fit and compound IC50 value was obtained.
as §2

[4] = tested on: Caco-2 cells
Experimental: (§3) The purpose of this experiment is to test the bidirectional permeability of the compound through the Caco-2 cell model and evaluate whether the compound is transported by efflux transporters.
(§4) Liquid chromatography-mass spectrometer, centrifuge, vortexer, pipette, 96-well test plate (HTS Transwell Plate), acetonitrile solution containing internal standard, Caco-2 cells (ATCC), Hank's balance solution (HBSS), fluorescent yellow (LY), dimethyl sulfoxide (DMSO).
(§5) 108 μL of transport buffer (HBSS containing 10 μM of the example compound) was added to the administration end of A to B. • b. 300 μL of transport buffer (HBSS containing DMSO) was added to the receiving end of A to B. • c. 300 μL of transport buffer (HBSS containing 10 μM example compound) was added to the administration end of A to B. • d. 108 μL of transport buffer (HBSS containing DMSO) was added to the receiving end of A to B. • e. incubation was performed for 90 min. • d. a sample was taken, processed and detected with mass spectrometry.
(§6) • Instruments: Liquid Chromatography; • Chromatographic column: Waters XSelect HSS T3 2.5 μm (2.1×50 mm); • Mobile phase: Phase A: 0.1% formic acid in pure water; Phase B: 0.1% formic acid in acetonitrile.
(§7) • Instruments: AP16500+liquid chromatography-mass spectrometer; • The ion source is electrospray ionization source (ESI); • The detection method is positive ion detection;
(§8) The scanning method is selected reaction monitoring (MRM).

[5] = Caco-2 bidirectional permeability test; conditions: human, Caco-2
Experimental: as §3, §4, §5, §6, §7, §8

[6] = tested on: OCI-Ly3 cells; experiment: Inhibition of proliferation of OCI-Ly3 cells (CellTiter-Glo); assay type: cell-based, human; conditions: 96 h incubation, read-out: Inhibition test of proliferation of OCI-Ly3 cells IC50
Experimental: The compound's inhibitory effect on the proliferation of TMD8 and OCI-Ly3 cells was evaluated through cell proliferation inhibition experiments.
The compound's inhibitory effect on the proliferation of TMD8 and OCI-Ly3 cells was detected by the CellTiter-Glo method. The highest concentration of the compound detected was 1000 nM, 3-fold dilution, a total of 9 concentrations (1000 nM-0.15 nM). After the cells were plated at an appropriate density, compounds were added the next day and incubated for 96 h before detection using the CellTiter-Glo Luminescent detection kit.
as §1, §2

[7] = male, mouse, po, read-out: AUC 0-t
[8] = male, mouse, po, read-out: Cmax
[9] = male, mouse, po, read-out: Tmax

Chain of MALT1 protease activity in TMD8 cells (substrate BCL-10) (Q9UDY8 whole entry): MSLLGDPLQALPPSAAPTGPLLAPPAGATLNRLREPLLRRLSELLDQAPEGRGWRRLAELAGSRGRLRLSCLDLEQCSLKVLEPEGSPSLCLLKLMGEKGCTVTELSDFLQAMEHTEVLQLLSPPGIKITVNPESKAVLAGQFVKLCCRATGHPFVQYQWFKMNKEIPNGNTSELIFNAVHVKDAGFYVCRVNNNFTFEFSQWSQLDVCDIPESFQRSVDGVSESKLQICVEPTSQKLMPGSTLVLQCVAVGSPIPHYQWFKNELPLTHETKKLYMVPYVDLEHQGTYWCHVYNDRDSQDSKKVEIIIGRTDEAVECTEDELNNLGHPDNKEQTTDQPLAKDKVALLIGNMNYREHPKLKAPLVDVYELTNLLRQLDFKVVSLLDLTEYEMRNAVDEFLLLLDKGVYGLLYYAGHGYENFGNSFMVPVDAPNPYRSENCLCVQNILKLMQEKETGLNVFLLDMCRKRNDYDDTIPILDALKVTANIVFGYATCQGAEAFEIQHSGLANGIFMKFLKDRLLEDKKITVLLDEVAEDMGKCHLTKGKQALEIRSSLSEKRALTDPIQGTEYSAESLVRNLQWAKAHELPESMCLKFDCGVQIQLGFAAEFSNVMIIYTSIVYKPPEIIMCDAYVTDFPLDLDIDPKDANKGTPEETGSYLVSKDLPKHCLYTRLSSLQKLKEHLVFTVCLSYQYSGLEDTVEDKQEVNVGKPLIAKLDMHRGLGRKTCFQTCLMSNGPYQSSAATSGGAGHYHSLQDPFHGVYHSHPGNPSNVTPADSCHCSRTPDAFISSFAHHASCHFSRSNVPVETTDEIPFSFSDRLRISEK
Chain of Recombinant human MALT1/MLT protein (Q9UDY8 whole entry): as above

IC50 [1] [nM] | IC50 [3] [nM] | IC50 ([6]; Homo sapiens) [nM] | AUC(0-inf) ([2]; male, mouse, po) [ng·h/mL] | half-life ([2]; male, mouse, po) [h] | AUC(0-t) [2, 7] [ng·h/mL] | Cmax [2, 8] [ng/mL] | MRT ([2]; male, mouse, po, read-out: MRT) [h] | Tmax [2, 9] [h] | SMILES | other results
28 | 58 | 154 |  |  |  |  |  |  | O=C(Nc1ccc(-n2nccn2)c(Cl)c1)c1cnn(-c2ccc3c4c(cccc24)C(=O)N3)c1C1CC1 [Example 63, N-(3-chloro-4-(2H-1,2,3-triazol-2-yl)phenyl)-5-cyclopropyl-1-(2-oxo-1,2-dihydrobenzo[cd]indol-6-yl)-1H-pyrazole-4-carboxamide] | 
16 | 57 | 132 |  |  |  |  |  |  | O=C(Nc1cnc(-n2nccn2)c(Cl)c1)c1cnn(-c2ccc3c4c(cccc24)C(=O)N3)c1C1CC1 [Example 60, N-(5-chloro-6-(2H-1,2,3-triazol-2-yl)-pyridin-3-yl)-5-cyclopropyl-1-(2-oxo-1,2-dihydrobenzo[cd]indol-6-yl)-1H-pyrazole-4-carboxamide] | 
28 | 73 | 97 | 105000 | 2.1 | 105000 | 15300 | 4.3 | 2 | O=C(Nc1cnc(-n2nccn2)c(C(F)F)c1)c1cnn(-c2ccc3c4c(cccc24)C(=O)N3)c1C(F)(F)F [Example 49, N-(5-difluoromethyl-6-(2H-1,2,3-triazol-2-yl)-pyridin-3-yl)-1-(2-oxo-1,2-dihydrobenzo[cd]indol-6-yl)-5-trifluoromethyl-1H-pyrazole-4-carboxamide] | 
31 | 93 | 152 |  |  |  |  |  |  | O=C(Nc1cnc(-n2nccn2)c(C(F)(F)F)c1)c1cnn(-c2ccc3c4c(cccc24)C(=O)N3)c1C1CC1 [Example 56, N-(6-(2H-1,2,3-triazol-2-yl)-5-(trifluoromethyl)pyridin-3-yl)-5-cyclopropyl-1-(2-oxo-1,2-dihydrobenzo[cd]indol-6-yl)-1H-pyrazole-4-carboxamide] | 

Second part, the compound before the results:

SMILES | IC50 [1] [nM] | IC50 [3] [nM] | IC50 ([6]; Homo sapiens) [nM] | AUC(0-inf) ([2]; male, mouse, po) [ng·h/mL] | half-life ([2]; male, mouse, po) [h] | AUC(0-t) [2, 7] [ng·h/mL] | Cmax [2, 8] [ng/mL] | MRT ([2]; male, mouse, po, read-out: MRT) [h] | Tmax [2, 9] [h] | other results
O=C(Nc1ccnc(C(F)(F)F)c1)c1cnn(-c2ccc3c4c(cccc24)C(=O)N3)c1C(F)(F)F [Example 3] | 105 | 83 |  |  |  |  |  |  |  | AUC0-∞ [2]: 341,390 ng/mL*hr; AUC(0-t) [2]: 330,088 ng/mL*h; Cmax [2]: 23,733 ng/mL; MRT [2]: 7.4 h; T1/2 [2]: 4.7 h; Tmax [2]: 4.0 h; Papp A − B ([4]; Caco-2): 1.57 10^−6 cm · s^−1; Papp B − A ([4]; Caco-2): 10.24 10^−6 cm · s^−1; Papp(B − A)/Papp(A − B) ([4]; human, Caco-2, 90 min, 10 μM): 6.52
O=C(Nc1cnc(-n2nccn2)c(Cl)c1)c1cnn(-c2ccc3c4c(cccc24)C(=O)N3)c1C(F)(F)F [Example 5, N-(6-(2H-1,2,3-triazol-2-yl)-5-chloropyridin-3-yl)-1-(2-oxo-1,2-dihydrobenzo[cd]indol-6-yl)-5-trifluoromethyl-1H-pyrazole-4-carboxamide] | 15 | 36 | 120 | 64100 | 2.1 | 64100 | 7180 | 5.2 | 2 | Papp A→B at 90 min, 10 µM [5]: 1 ×10⁻⁶ cm/s; Papp B→A at 90 min, 10 µM [5]: 7.03 ×10⁻⁶ cm/s; efflux ratio at 90 min, 10 µM [5]: 7.09
O=C(Nc1cnc(-n2nccn2)c(C(F)(F)F)c1)c1cnn(-c2cnc3c4c(cccc24)C(=O)N3)c1C(F)(F)F [Example 68] | 51 | 72 |  |  |  |  |  |  |  | IC50 [6]: 271 nM; AUC0-∞ [2]: 10,388 ng/mL*hr; AUC(0-t) [2]: 10,168 ng/mL*h; Cmax [2]: 2,670 ng/mL; MRT [2]: 2.6 h; T1/2 [2]: 1.2 h; Tmax [2]: 0.5 h
O=C(Nc1cc(Cl)n2ncc(Cl)c2c1)c1cnn(-c2ccc3c4c(cccc24)C(=O)N3)c1C(F)(F)F [Example 13, N-(3,7-dichloropyrazolo[1,5-a]pyridin-5-yl)-1-(2-oxo-1,2-dihydrobenzo[cd]indol-6-yl)-5-trifluoromethyl-1H-pyrazole-4-carboxamide] | 107 |  | 272 | 67800 | 6.2 | 62700 | 4380 | 9.4 | 4 | Papp A→B at 90 min, 10 µM [5]: 7.63 ×10⁻⁶ cm/s; Papp B→A at 90 min, 10 µM [5]: 19.1 ×10⁻⁶ cm/s; efflux ratio at 90 min, 10 µM [5]: 2.5
Cc1ncn(-c2ncc(NC(=O)c3cnn(-c4ccc5c6c(cccc46)C(=O)N5)c3C(F)(F)F)cc2Cl)n1 [Example 46] | 93 | 80 |  |  |  |  |  |  |  | IC50 [6]: 222 nM
